# Reference: patent US9181116B2, “Organophosphorus derivatives and use thereof as uncoupling agents” (RHODIA OPERATIONS, priority 2009, dated 2015)
# How the values were obtained:
# [1] = tested on: strain Schinella granuli; experiment: Oxytop respirometry screening test (oxygen overconsumption = uncoupling); assay type: cell-based
# Text: In order to evaluate the reduction in sludge production by an uncoupling chemical agent in respirometry (in order to measure oxygen overconsumption, a characteristic signature of the effects of an uncoupling agent), the oxytop® test technique is used containing a synthetic medium and bacterial strains particularly sensitive to uncoupling agents.
# The method and the apparatus used are those described in Example 3 of WO 2004/113236 cited as a reference. The strain Schinella granuli was used as an inoculum in this methodology (which differs from Example 3 of WO 2004/113236 which used activated sludge).
# They are expressed as an uncoupling percentage relatively to the control (not comprising any uncoupling agent). This means that for Ex2 at 0.05 mg/l, we have an oxygen overconsumption of 18% relatively to the control not comprising any uncoupling agent. THPS (tetrakis(hydromethyl)phosphonium sulfate) produces uncoupling effects in the oxitop® respirometry tests of 16±8% for a rated concentration of 3 ppm, the 95% confidence interval of THPS in terms of uncoupling factor being, values computed from results obtained in 26 Oxitop® tests.
# [2] = tested on: activated sludge from the urban STEP of St-Fons; experiment: Chemostat biological pilot, reduction of activated sludge production (flash mixing); conditions: 2.9 ppm, 3 months injection
# Text: Detection of the reduction of activated sludge by an organophosphonium derivative in a Chemostat® biological pilot.
# Tests on biological pilots continuously fed with synthetic effluent dealt with the molecule of Ex2 (Example 2 above), show significant uncoupling effects on the reduction of sludge production. The biological pilots have a volume of 5 liters and are continuously aerated; a purge of the latter is made everyday (except on weekends) in order to obtain a sludge age of about 7 days. The biological pilots were seeded with activated sludge from the urban STEP of St-Fons (France). After a short acclimatization period of the sludge, the treatment with the molecule Ex2 was carried out according to the flash mixing method also described in Example 1 of WO 2004/113236 cited as a reference.
# An experiment, for which the total period of injection of the uncoupling product according to the flash mixing method lasted for 3 months, gave the following results:
# A complementary experiment, this time using two different grades of the compound Ex2 of Example 2 above, designated as EX21 and EX22a hereafter, gave the following results over a 1 month injection period: […]
smiles,measurement,setting,value
"O=S(=O)([O-])[O-].OC[P+](CO)(CO)CO.OC[P+](CO)(CO)CO [THPS, tetrakis(hydromethyl)phosphonium sulfate]",uncoupling percentage relatively to the control (oxygen overconsumption),"[1]; 3 ppm (rated concentration), THPS: average over 26 tests",16±8%
same,95% confidence interval in terms of uncoupling factor,"[1]; 3 ppm, computed from 26 Oxitop tests",10-22
same,Growth rate,[2],0.171 g of MLSS/g of removed COD
same,Reduction in growth rate,[2]; vs untreated control,9.0%
same,Reduction in sludge production,[2]; vs untreated control,13.6%
